What was measured:
[1] = molecular target: rat acid ceramidase (rAC) (Rattus norvegicus (Rat), UniProt Q6P7S1); assay: Rat acid ceramidase (rAC) enzymatic assay, LC/MS of lauric acid; format: biochemical; details: rat acid ceramidase, 100 μM N-lauroyl ceramide, pH 4.5
Method: A lysosomal rat acid ceramidase (rAC) protein preparation was obtained from cells stably expressing rAC resuspended in 20 mM Tris HCl (pH 7.5) with 0.32 M sucrose. Samples were sonicated and centrifuged at 800×g for 15 min at 4° C. Supernatants were then centrifuged at 12,000×g for 30 min at 4° C. Pellets were re-suspended in PBS pH 7.4 and subjected to 2 freeze-thaw cycles at −80° C. The suspension was finally centrifuged at 105,000×g for 1 hr at 4° C. and the supernatant containing rAC was then used in the enzymatic assay.
r-AC protein samples were pre-incubated with various concentrations of test compounds or vehicle control in 100 mM NaH2PO4/citrate buffer pH 4.5, 0.1% Nonidet P-40, 3 mM DTT for 30 min at 37° C. Samples were incubated with 100 μM N-lauroyl ceramide (Nu-Chek Prep, Elysian, Minn.) at 37° for 30 min. The reaction was stopped by addition of a mixture of chloroform/methanol (2:1 vol/vol) containing 1 nmol of heptadecanoic acid (HDA; NuChek Prep). The organic phases were collected, dried under nitrogen, and analyzed by LC/MS in the negative-ion mode using heptadecanoic acid (HDA) as internal standard (m/z=199 for lauric acid, m/z=269 for HDA). HDA was eluted on an XDB Eclipse C18 column isocratically at 2.2 mL/min for 1 min with a solvent mixture of 95% methanol and 5% water, both containing 0.25% acetic acid, and 5 mM ammonium acetate. The column temperature was 50° C. Electrospray ionization (ESI) was in the negative mode, capillary voltage was 4 kV, and fragmentor voltage was 100 V. Nitrogen was used as drying gas at a flow rate of 13 L/min and at a temperature of 350° C. Nebulizer pressure was set at 60 psi. We monitored [M-H]− in the selected-ion monitoring (SIM) mode using HDA as internal standard.
Inhibition of rAC activity was calculated as a reduction of lauric acid in the samples compared to vehicle controls. Median inhibitory concentration (IC50) values were calculated by non-linear regression analysis of log [concentration]/inhibition curves using. GraphPad Prism 5 (GraphPad Software, Inc., CA, USA) applying a standard slope curve fitting.

[2] = test system: human colon adenocarcinoma cell line SW403; assay: Ceramide levels in SW403 cells (lipid extraction, LC/MS); format: cell-based; details: 3 μM, 3 hrs, vs. vehicle
Method: Lipids were extracted using a chloroform/methanol mixture (2:1 vol/vol, 3 mL) containing internal standards. The organic phases were collected, dried under nitrogen, and dissolved in methanol/chloroform (3:1 vol/vol) for LC/MS analyses.
Ceramides were analyzed by LC/MS^n, using a 1100-LC system (Agilent Technologies) equipped with an Ion Trap XCT and interfaced with ESI (Agilent Technologies). They were separated on a Poroshell 300 SB C18 column (2.1×75 mm i.d., 5 μm; Agilent Technologies) maintained at 30° C. A linear gradient of methanol in water containing 5 mM ammonium acetate and 0.25% acetic acid (from 80% to 100% of methanol in 3 man) was applied at a flow rate of 1 mL/min. […]
Tissue-derived ceramides were identified by comparison of their LC retention times and MS^n fragmentation patterns with those of authentic standards (Avanti Polar Lipids). Extracted ion chromatograms were used to quantify myristoyl ceramide (C140, m/z 510.5>492.5>264.3), palmitoyl ceramide (C16:0, m/z 538.5>520.3>264.3), stearoyl ceramide (C18:0 m/z 566.5>548.3>264.3), lignoceroylceramide (C24:0 m/z 650.5>632.3>264.3), nervonoylceramide (C24:1 m/z 648.5>630.3>264.3) and using lauroyl ceramide standard (m/z 482.5>464.5>264.3). […]

SW403 cells [3] = assay: SW403 cell viability, trypan blue assay; format: cell-based, human; details: prolonged (72 hrs) treatment, concentration-response, FIGS. 2A and 2B
Method: (§1) Cells were seeded in 12- or 96-well plates in complete medium 24 hrs before treatment and then incubated for 24 hrs (single treatment) or 72 hrs (multiple treatments) with different drug concentrations in media without serum. Cell viability was then evaluated.
The trypan blue exclusion assay is based on the principle that viable cells have intact cell membrane and can therefore exclude the trypan blue dye. Cell viability was measured after 24 hrs incubation with the drug. Cells were harvested, centrifuged at 1200 rpm for 10 min and pellets re-suspended in PBS. To evaluate viability, cells were diluted 1:1 with 0.4% trypan blue dye (Sigma), incubated for 1 min and white (viable) cells were counted with a hemacytometer.

SW403 cells [4] = assay: SW403 cell viability, MTT assay; format: cell-based, human
Method: as §1
Alternatively, cell viability was assessed measuring mitochondrial functionality by the MIT assay, which is based on the reduction of the soluble tetrazolium salt MTT [(3-(4,5-dimethylthiazol-2-yl)-2,5-diphenyltetrazolium bromide] into insoluble formazan by mitochondria. Briefly, after treatment, cells were washed with PBS and incubated with 0.5 mg/ml, MTT for 2 hrs at room temperature, MTT reduction was quantified by absorbance at 570 nm using a UV-visible plate reader.

SW403 cells [5] = assay: Isobolographic analysis of combined treatment of SW403 cells (ED50, trypan blue assay); format: cell-based, human
Method: Interaction between drugs was assessed by isobolographic analysis, based on the concept of dose-equivalence which follows from the dose effect curves of the individual drugs (Tallarida R I, Interactions between drugs and occupied receptors. Pharmacol. Ther. 2007, 113, 197-209; Tallarida R J, Raffa R B, The application of drug dose equivalence in the quantitative analysis of receptor occupation and drug combinations. Pharmacol. Ther. 2010; 127, 165-174). Specifically, the individual drugs' potency and efficacy allow calculating the expected effect of a combination of the two drugs.
In the experiment of combined treatment, isobolograms were constructed by plotting on vertical and horizontal axes the ED50 data of the single drugs measured by trypan blue assay after subcronic treatment for 72 hrs. The straight line with axial intercepts represents the isobole of additivity and allows calculating the theoretical additive dose. Synergism is indicated by an observed pair (x, y) that plots below the isobole for the specified effect, whereas sub-additivity is indicated when an observed pair (x, y) plots above the isobole.

[6] = SW403 cells, 72 hrs, isobole of additivity, higher than the experimental values

Sequence of rat acid ceramidase (rAC) (Q6P7S1 142-394): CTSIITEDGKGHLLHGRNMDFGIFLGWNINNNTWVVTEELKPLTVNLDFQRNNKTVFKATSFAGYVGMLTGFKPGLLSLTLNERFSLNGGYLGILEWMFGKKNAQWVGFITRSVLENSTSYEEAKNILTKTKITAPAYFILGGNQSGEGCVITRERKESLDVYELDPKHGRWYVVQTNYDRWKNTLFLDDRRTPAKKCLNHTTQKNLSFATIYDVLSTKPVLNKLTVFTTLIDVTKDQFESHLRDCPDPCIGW
Sequence of rat acid ceramidase (rAC) (Q6P7S1 21-141): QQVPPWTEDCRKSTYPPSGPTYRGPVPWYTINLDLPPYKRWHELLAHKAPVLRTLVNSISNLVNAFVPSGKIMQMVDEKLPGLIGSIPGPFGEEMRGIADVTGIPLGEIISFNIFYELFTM

For `CCCCCCNC(=O)n1cc(C(F)(F)F)c(=O)[nH]c1=O` [Example 4, N-hexyl-2,4-dioxo-5-(trifluoromethyl)pyrimidine-1-carboxamide], the IC50 [1] was 10 nM, the “levels of C14:0, C16:0 and C18:0 ceramide” value [2] was “increased” and the “SW403 cell viability (trypan blue assay)” value (SW403 cells [3]) was “reduction of the viability”. For the same compound, the “interaction with 5FU in reducing cell viability (MTT assay)” value (SW403 cells [4]; 72 hrs, compound 30 μM + 5FU 300 nM) was “synergistic effect”, the “SW403 cell viability (MTT assay)” value (SW403 cells [4]; sub-chronic treatment 72 hrs, compounds 30 μM, 5FU 300 nM) was “reduced cell viability” and the “theoretical dose (Th) to be used with 20 nM taxol to obtain an additive effect” value (SW403 cells [5]; [6]) was 4.9 µM. The “theoretical dose (Th) to be used with 300 nM 5FU to obtain an additive effect” value (SW403 cells [5]; [6]) was 7.8 µM, the “interaction with taxol in reducing viability of SW403 cells (isobologram)” value (SW403 cells [5]; prolonged treatment, 20 nM taxol, trypan blue ED50) was “synergistic effect” and the “interaction with 5-fluorouracil in reducing viability of SW403 cells (isobologram)” value (SW403 cells [5]; prolonged treatment, 300 nM 5FU, trypan blue ED50) was “synergistic effect”.
